# Where two headings read alike, the source gives them in different places.
# Key:
# Format in all cases: in vivo
# [1] = test system: Puccinia triticina; synonym: Puccinia recondita f. sp. tritici; assay: Fungicidal activity: wheat brown rust (PUCCRT), wheat seedlings
# Procedure: Technical grades of materials were dissolved in acetone, which were then mixed with nine volumes of water containing 110 ppm Triton X-100. The fungicide solutions were applied onto wheat seedlings using an automated booth sprayer to run-off. All sprayed plants were allowed to air dry prior to further handling. Wheat plants (variety Yuma) were grown from seed in a greenhouse in 50% mineral soil/50% soil-less Metro mix until the first leaf was fully emerged, with 7-10 seedlings per pot. These plants were inoculated with an aqueous spore suspension of Septoria tritici either prior to or after fungicide treatments. After inoculation the plants were kept in 100% relative humidity (one day in a dark dew chamber followed by two to three days in a lighted dew chamber at 20° C.) to permit spores to germinate and infect the leaf. The plants were then transferred to a greenhouse set at 20° C. for disease to develop. When disease symptoms were fully expressed on the 1st leaves of untreated plants, infection levels were assessed on a scale of 0 to 100 percent disease severity. Percent disease control was calculated using the ratio of disease severity on treated plants relative to untreated plants. Evaluation of Fungicidal Activity: Wheat Brown Rust (Puccinia […]; Synonym: Puccinia recondita f. Sp. Tritici; Bayer Code PUCCRT) Wheat plants (variety Yuma) were grown from seed in a greenhouse in 50% mineral soil/50% soil-less Metro mix until the first leaf was fully emerged, with 7-10 seedlings per pot. These plants were inoculated with an aqueous spore suspension of Puccinia triticina either prior to or after fungicide treatments. After inoculation the plants were kept in a dark dew room at 22° C. with 100% relative humidity overnight to permit spores to germinate and infect the leaf. The plants were then transferred to a greenhouse set at 24° C. for disease to develop. Fungicide formulation, application and disease assessment followed the procedures as described in the Example A.
# [2] = test system: Puccinia triticina; synonym: Puccinia recondita f. sp. tritici; assay: Fungicide mobility (dropline mobility test): wheat brown rust (PUCCRT); details: 1 ug/leaf
# Procedure: Evaluation of Fungicide Mobility: Wheat Brown Rust (Puccinia triticina; Synonym: Puccinia recondita f. sp. tritici; Bayer Code PUCCRT) “Yuma” wheat seedlings were used in the test. One mg of compound was dissolved in 9 μl of EC blank (emulsifiable concentrate) and 500 μl of acetone. Acetone was then evaporated overnight by leaving the vial open in a fume hood. Two milliliters of water containing 110 ppm Triton X-100 was added to each vial to prepare application solutions. A 2 μl drop of formulated material was applied to a marked line on the adaxial surface 5 cm from the leaf tip of the primary leaves. The primary leaves were kept in a horizontal position. Each treatment had 6 replicates. Plants were inoculated with PUCCRT 1-day after (1DPM) or 3-day prior to (3DCM) compound applications. When rust was fully expressed on primary leaves on control plants, the zone of treated leaves that was disease-free in the acropetal direction was measured with a ruler and converted to percent of the distance from marked line to leaf tip.
# [3] = test system: Mycosphaerella graminicola; anamorph: Septoria tritici; assay: Fungicidal activity: leaf blotch of wheat (SEPTTR), wheat seedlings; details: Zymoseptoria tritici
# Procedure: Evaluation of Fungicidal Activity: Leaf Blotch of Wheat (Mycosphaerella Graminicola; Anamorph: Septoria tritici; Bayer Code […]) Technical grades of materials were dissolved in acetone, which were then mixed with nine volumes of water containing 110 ppm Triton X-100. The fungicide solutions were applied onto wheat seedlings using an automated booth sprayer to run-off. All sprayed plants were allowed to air dry prior to further handling. Wheat plants (variety Yuma) were grown from seed in a greenhouse in 50% mineral soil/50% soil-less Metro mix until the first leaf was fully emerged, with 7-10 seedlings per pot. These plants were inoculated with an aqueous spore suspension of Septoria tritici either prior to or after fungicide treatments. After inoculation the plants were kept in 100% relative humidity (one day in a dark dew chamber followed by two to three days in a lighted dew chamber at 20° C.) to permit spores to germinate and infect the leaf. The plants were then transferred to a greenhouse set at 20° C. for disease to develop. When disease symptoms were fully expressed on the 1st leaves of untreated plants, infection levels were assessed on a scale of 0 to 100 percent disease severity. Percent disease control was calculated using the ratio of disease severity on treated plants relative to untreated plants.
# [4] = 24 h, 100 ppm, 1 Day Protectant, wheat, read-out: Disease Control PUCCRT 1DP
# [5] = 72 h, 100 ppm, 3 Day Curative, wheat, read-out: Disease Control PUCCRT 3DC
# [6] = 24 h, 1 Day Protectant Mobility, read-out: Dropline Mobility Test PUCCRT 1DPM
# [7] = 24 h, 100 ppm, 1 Day Protectant, wheat, read-out: Disease Control SEPTTR 1DP
# [8] = 72 h, 100 ppm, 3 Day Curative, wheat, read-out: Disease Control SEPTTR 3DC
# [9] = 72 h, 3 Day Curative Mobility, read-out: Dropline Mobility Test PUCCRT 3DCM
# [10] = 24 h, read-out: Disease Control PUCCRT 1DP
# [11] = 72 h, read-out: Disease Control PUCCRT 3DC
# [12] = 24 h, read-out: Disease Control SEPTTR 1DP
# [13] = 72 h, read-out: Disease Control SEPTTR 3DC
SMILES,"pest or weed control at 100 ppm [1, 4] [%]","pest or weed control at 100 ppm [1, 5] [%]","pest or weed control at 1 µg/leaf [2, 6] [%]","pest or weed control at 100 ppm [3, 7] [%]","pest or weed control at 100 ppm [3, 8] [%]","pest or weed control at 1 µg/leaf [2, 9] [%]","pest or weed control at 100 ppm [1, 10] [%]","pest or weed control at 100 ppm [1, 11] [%]","pest or weed control at 100 ppm [3, 12] [%]","pest or weed control at 100 ppm [3, 13] [%]"
COCCC(=O)Oc1c(OC)ccnc1C(=O)N[C@H]1COC[C@H](Oc2ccccc2)[C@@H](Oc2ccccc2)[C@H](C)OC1=O [Compound 235],80 to 100,80 to 100,0 to 80,80 to 100,80 to 100,–,–,–,–,–
CCCCCO[C@H]1[C@H](C)OC(=O)[C@@H](NC(=O)c2nccc(OC)c2OCOC(C)=O)COC[C@@H]1OCCCCC [Compound 64],80 to 100,80 to 100,0 to 80,80 to 100,80 to 100,0 to 80,–,–,–,–
CCCCO[C@H]1COC[C@H](NC(=O)c2nccc(OC)c2O)C(=O)O[C@@H](C)[C@@H]1OC(=O)c1ccccc1 [Compound 66],80 to 100,80 to 100,0 to 80,80 to 100,0 to 80,0 to 80,–,–,–,–
COc1ccnc(C(=O)N[C@H]2COC[C@H](Oc3ccccc3)[C@@H](Oc3ccccc3)[C@H](C)OC2=O)c1OCOC(=O)C(C)C [Compound 234],80 to 100,80 to 100,80 to 100,80 to 100,80 to 100,–,–,–,–,–
"COCCC(=O)Oc1c(OC)ccnc1C(=O)N[C@H]1COC[C@H](OCC(C)C)[C@@H](OCC(C)C)[C@H](C)OC1=O [Compound 237, 2-(((3S,7S,8S,9S)-7,8-diisobutoxy-9-methyl-2-oxo-1,5-dioxonan-3-yl)carbamoyl)-4-methoxypyridin-3-yl 3-methoxypropanoate]",80 to 100,80 to 100,80 to 100,80 to 100,80 to 100,80 to 100,–,–,–,–
"CCCO[C@H]1[C@H](C)OC(=O)[C@@H](NC(=O)c2nccc(OC)c2O)COC[C@@H]1OCCC [Compound 58, 3-hydroxy-4-methoxy-N-((3S,7S,8S,9S)-9-methyl-2-oxo-7,8-dipropoxy-1,5-dioxonan-3-yl)picolinamide]",–,–,80 to 100,–,–,0 to 80,80 to 100,80 to 100,0 to 80,0 to 80
CCCCO[C@H]1COC[C@H](NC(=O)c2nccc(OC)c2OCOC(C)=O)C(=O)O[C@@H](C)[C@@H]1OC(=O)c1ccccc1 [Compound 69],80 to 100,80 to 100,0 to 80,80 to 100,80 to 100,0 to 80,–,–,–,–
COc1ccnc(C(=O)N[C@H]2COC[C@H](OC3CCCCC3)[C@@H](OCC(C)C)[C@H](C)OC2=O)c1OCOC(C)=O [Compound 76],80 to 100,80 to 100,80 to 100,80 to 100,80 to 100,0 to 80,–,–,–,–
COc1ccnc(C(=O)N[C@H]2COC[C@H](OC3CCCCC3)[C@@H](O)[C@H](C)OC2=O)c1O [Compound 74],0 to 80,0 to 80,0 to 80,0 to 80,0 to 80,0 to 80,–,–,–,–
CCCCCO[C@H]1[C@H](C)OC(=O)[C@@H](NC(=O)c2nccc(OC)c2O)COC[C@@H]1OCCCCC [Compound 62],–,80 to 100,0 to 80,–,80 to 100,–,–,–,–,–
COc1ccnc(C(=O)N[C@H]2COC[C@H](OCC(C)C)[C@@H](O)[C@H](C)OC2=O)c1O [Compound 70],0 to 80,0 to 80,0 to 80,0 to 80,0 to 80,0 to 80,–,–,–,–
CCCO[C@H]1[C@H](C)OC(=O)[C@@H](NC(=O)c2nccc(OC)c2OCOC(C)=O)COC[C@@H]1OCCC [Compound 61],80 to 100,80 to 100,80 to 100,80 to 100,80 to 100,0 to 80,–,–,–,–
COc1ccnc(C(=O)N[C@H]2COC[C@H](OCC(C)C)[C@@H](OC3CCCCC3)[C@H](C)OC2=O)c1O [Compound 75],80 to 100,80 to 100,0 to 80,80 to 100,0 to 80,0 to 80,–,–,–,–
COc1ccnc(C(=O)N[C@H]2COC[C@H](OCC(C)C)[C@@H](OCC(C)C)[C@H](C)OC2=O)c1OC(C)=O [Compound 238],80 to 100,80 to 100,80 to 100,80 to 100,80 to 100,80 to 100,–,–,–,–
COc1ccnc(C(=O)N[C@H]2COC[C@H](Oc3ccccc3)[C@@H](Oc3ccccc3)[C@H](C)OC2=O)c1OC(C)=O [Compound 236],80 to 100,80 to 100,0 to 80,80 to 100,80 to 100,–,–,–,–,–
COc1ccnc(C(=O)N[C@H]2CO[C@@H](C)[C@H](OCC(C)C)[C@@H](OCC(C)C)[C@H](C)OC2=O)c1O [Compound 26],80 to 100,80 to 100,0 to 80,80 to 100,0 to 80,–,–,–,–,–
COc1ccnc(C(=O)N[C@H]2COC[C@H](OCCCC(F)(F)F)[C@@H](OCCCC(F)(F)F)[C@H](C)OC2=O)c1O [Compound 67],80 to 100,0 to 80,0 to 80,0 to 80,0 to 80,0 to 80,–,–,–,–
"COc1ccnc(C(=O)N[C@H]2COC[C@H](Oc3ccccc3)[C@@H](Oc3ccccc3)[C@H](C)OC2=O)c1O [Compound 81, 3-hydroxy-4-methoxy-N-((3S,7S,8S,9S)-9-methyl-2-oxo-7,8-diphenoxy-1,5-dioxonan-3-yl)picolinamide]",–,–,80 to 100,–,–,0 to 80,80 to 100,80 to 100,80 to 100,80 to 100
CCOCC(=O)OCOc1c(OC)ccnc1C(=O)N[C@H]1COC[C@H](Oc2ccc(F)cc2)[C@@H](OCC(C)C)[C@H](C)OC1=O [Compound 227],80 to 100,80 to 100,–,80 to 100,80 to 100,–,–,–,–,–

# From US9144239B2, “Macrocyclic picolinamides as fungicides” (DOW AGROSCIENCES LLC, priority 2012, dated 2015)
